From PMC9800617, “Pharmacokinetics/pharmacodynamics of polymyxin B in patients with bloodstream infection caused by carbapenem-resistant Klebsiella pneumoniae” (Frontiers in Pharmacology, 2022)
“And” between values parts separate entries of the source, which are not always exact repeats. Equal entries are not always repeated. Where two headings read alike, the source gives them in different places. Bridge positions count the residues as written; N and C are the ends. Square brackets hold non-standard residues; d marks the D form. Peptide text beside a SMILES is read from it. * marks the point of attachment. X1 = CC[C@H](C)CCCCC(=O)*; Dab = NCC[C@H](N)C(=O)O

Tests used:
[1] = 24 critically ill patients, 0.45–3.38 mg/kg/day, no loading dose, ref Sandri et al., 2013, cited from earlier work
Description: A good understanding of the PK of polymyxin B is essential for optimizing its clinical use. A previous population PK study examining the use of polymyxin B (0.45–3.38 mg/kg/day) in 24 critically ill patients reported an AUCss,24h of 66.9 ± 21.6 mg h/L (range, 16.4–117 mg h/L) and Css,avg of 2.79 ± 0.90 mg/L; no loading dose was administered ([Sandri et al., 2013]).

K. pneumoniae = settings: ref Landersdorfer et al., 2018, cited from earlier work
Description: Monte Carlo simulations were conducted for the probability of target attainment (PTA) analysis to guide the selection of optimal dosage regimens. Different dosage regimens were simulated by the PPK model and AUCss,24h were calculated. […] The maximal reductions in colony f ... || FIGURE 4 Probability of target attainment for different dosage regimens of polymyxin B against common carbapenem-resistant organisms according to PK/PD simulations. (A) Loading dose for three bacterial species. […] In preclinical studies, the fAUC/MIC required for various magnitudes of bacterial killing varied among bacterial strains and infection sites. […] Against P. aeruginosa and A. b ... || (+ 2 further places)

[2] = Safety (adverse events, renal function) in BSI patients; assay type: in vivo, human
Description: The definition of different population groups for safety and efficacy analysis is shown in Supplementary Table S2. Briefly, safety was evaluated based on adverse events (AEs) in patients who received at least one polymyxin B dose. Adverse events were recorded based on patient self-reporting as well as abnormal laboratory test results including serum chemistry and routine blood and urinary testing. Acute kidney injury (AKI) was graded according to the RIFLE criteria ([Bellomo et al., 2004]). The primary endpoint was culture-confirmed bacterial eradication of CRKP from the blood evaluated by blood cultures taken every 3 days following the first dose of polymyxin B administration. Secondary endpoints were clinical outcome (clinical cure or improvement, Supplementary Table S3) evaluated in patients who received at least 3 days of polymyxin B treatment, and 28-day all-cause mortality evaluated in patients who completed 14 days of polymyxin B treatment.

[3] = Plasma pharmacokinetics of polymyxin B in CRKP BSI patients (LC-MS/MS; non-compartmental and compartmental); assay type: in vivo, human; settings: mean ± SD
Description: Polymyxin B Sulphate for Injection (Lot No. A-1411137) containing 72.0% polymyxin B1 and B1-Ile and 12.1% polymyxin B2 was provided by SPH No. 1 Biochemical & Pharmaceutical Co., Ltd. (Shanghai, China). Prior to administration, polymyxin B was dissolved in 50–100 ml normal saline as per the manufacturer’s instructions then administered intravenously at a dose of 1.25 mg/kg every 12 h (2-h infusion) with an initial loading dose of 2.5 mg/kg (3-h infusion). Treatment lasted for 7–14 days as per treatment guidelines ([Rhodes et al., 2017]). Adverse events were closely monitored and recorded for each patient.
Blood samples (4 mL) for pharmacokinetic analysis were collected in tubes with EDTA-K2 as the anticoagulant immediately before and after administration of the polymyxin B loading dose (the first dose) and immediately before administration of the second dose. Subsequent blood samples were collected during the second visit (5th, 6th or 7th dosing) consisting of a sample immediately prior to the infusion and at .5, 1, 2, 3, 4, 5, 6, 7, 8, 10, and 12 h following the commencement of the infusion. If possible, a final blood sample was collected 24 h after the commencement of the last infusion. All blood samples were centrifuged (4°C, 2,000 g) and plasma collected and stored at −80°C until analysis.
The concentrations of polymyxin B1 (including B1-Ile) and polymyxin B2 were determined using a validated liquid chromatography-tandem mass spectrometry (LC-MS/MS) method ([Liu et al., 2020]). […] The calibration range was .050–5.00 mg/L for polymyxin B1 and .011–.549 mg/L for polymyxin B2. The concentration of polymyxin B was calculated by the sum of concentrations of polymyxin B1 and B2 using molar terms and their molecular weights (polymyxin B1 is 1203.48 g/mol, polymyxin B2 is 1189.45 g/mol).
The PK parameters of polymyxin B were calculated using Phoenix WinNonlin 8.0 (Certara^TM, USA) with non-compartmental and compartmental methods. PPK analysis was conducted using NONMEM 7.4 (Icon Development Solutions, Ellicott City, MD) with G77 FORTRAN complier and FOCEI algorithm. Results from BSI patients in the present study and healthy subjects in a previous study were combined ([Liu et al., 2021]). One- and two-compartment models were tested during development of the base model. Models were developed and evaluated based on an objective function value and goodness-of-fit plots. The covariates were selected using a forward inclusion and backward elimination strategy. The screened covariates were sex, age, body weight, height, body mass index (BMI), creatinine clearance (CLcr), albumin, hemoglobin, total protein, total bilirubin, serum alanine aminotransferase (ALT), serum aspartate aminotransferase (AST), serum creatinine, Sequential Organ Failure Assessment (SOFA) score, and disease state (BSI patients were defined as 1 and healthy subjects were defined as 2). Covariates were included in the model based on the criteria of OFV requiring a decrease of 3.84 (p < .05) in the forward inclusion and an increase of greater of 10.83 (p < .001) in the backward elimination. Bootstrap sampling and visual predictive checks (VPCs) were utilized to validate the robustness of the final model.

[4] = nine patients, 2.5 mg/kg loading, 1.25 mg/kg/12 h iv
[5] = human, steady state, 1.25 mg/kg/12 h (2-h iv infusion), plasma, LC-MS/MS, non-compartmental

CC[C@H](C)CCCCC(=O)N[C@@H](CCN)C(=O)N[C@H](C(=O)N[C@@H](CCN)C(=O)N[C@H]1CCNC(=O)[C@H]([C@@H](C)O)NC(=O)[C@H](CCN)NC(=O)[C@H](CCN)NC(=O)[C@H](CC(C)C)NC(=O)[C@@H](Cc2ccccc2)NC(=O)[C@H](CCN)NC1=O)[C@@H](C)O [polymyxin B] (X1-[Dab]T[Dab][Dab][Dab][dF]L[Dab][Dab]T; lactam 4-C)
AUCss,24h ([1]; mean ± SD, SD): 66.9 ± 21.6 mg·h/L | Css,avg ([1]; mean ± SD, SD): 2.79 ± 0.90 mg/L | AUCss,24h, range [1]: 16.4 to 117 mg·h/L | fAUC24h/MIC target (K. pneumoniae; 1-log10 reduction against K. pneumoniae, murine thigh infection): 17.4 | target values of fAUC/MIC (K. pneumoniae; 1 log10 kill, mouse thigh infection, three strains of K. pneumoniae): 3.7–28.0 | 2 log10 kill (K. pneumoniae; mouse thigh infection, three strains of K. pneumoniae): 2 log10 kill could not be achieved with even the highest tolerated dose | incidence of polymyxin B-induced AKI (RIFLE criteria) ([2]; 5/9 patients): 55.6% | patients with at least one of neurotoxicity, nephrotoxicity, hyperpigmentation ([2]; 8/9 patients): 88.9% | abdominal pain ([2]; during polymyxin B treatment, all patients): no abdominal pain was reported by any patient | Hyperpigmentation, patients [2, 4]: 1/9 | Nephrotoxicity, patients [2, 4]: 5/9 | Neurotoxicity, patients [2, 4]: 5/9 | Study completion per protocol (Withdrawal reasons) ([2]; patient 1, treatment duration 6 days): Withdraw (AKI) | Study completion per protocol (Withdrawal reasons) ([2]; patient 2, treatment duration 6 days): Withdraw (AKI) | Study completion per protocol (Withdrawal reasons) ([2]; patient 3, treatment duration 14 days): Yes | Study completion per protocol (Withdrawal reasons) ([2]; patient 4, treatment duration 1 day (loading dose only)): Withdraw (pruritus and numbness on face and head, ataxia) | Study completion per protocol (Withdrawal reasons) ([2]; patient 5, treatment duration 5 days): Withdraw (AKI, pruritus and numbness on face and head, ataxia) | Study completion per protocol (Withdrawal reasons) ([2]; patient 6, treatment duration 14 days): Yes | Study completion per protocol (Withdrawal reasons) ([2]; patient 7, treatment duration 14 days): Yes | Study completion per protocol (Withdrawal reasons) ([2]; patient 8, treatment duration 4 days): Withdraw (AKI, pruritus and numbness on face and head, ataxia) | Study completion per protocol (Withdrawal reasons) ([2]; patient 9, treatment duration 14 days): Yes | neurotoxicity among conscious patients ([2]; seven conscious patients (two sedated)): Five of seven and 5 of 7 | Cmax ([3]; human, 2.5 mg/kg loading dose, 3-h iv infusion, plasma, LC-MS/MS, read-out: Cmax following the loading dose): 5530 ± 1800 ng/mL | level at 12 h ([3]; human, 2.5 mg/kg loading dose, 3-h iv infusion, plasma, LC-MS/MS, read-out: Cmin (12 h) following the loading dose): 1620 ± 410 ng/mL | clearance ([3]; human, plasma, iv, two-compartmental analysis, read-out: CL, clearance from the central compartment (converted)): 0.433 mL/min/kg | Vd [3, 5]: 0.49 ± 0.142 L/kg | half-life [3, 5]: 750 ± 187 min | AUC(0-t) ([3]; human, steady state, 1.25 mg/kg/12 h (2-h iv infusion), plasma, LC-MS/MS, non-compartmental, read-out: AUC12h): 39800 ± 12500 ng·h/mL | clearance ([3]; human, steady state, 1.25 mg/kg/12 h (2-h iv infusion), plasma, LC-MS/MS, non-compartmental, read-out: CL (converted)): 0.467 mL/min/kg | Cmax ([3]; human, steady state, 1.25 mg/kg/12 h (2-h iv infusion), plasma, LC-MS/MS, non-compartmental, read-out: Cmax): 5420 ± 1690 ng/mL | Cavg (Css,avg) ([3]; steady state, 1.25 mg/kg/12 h (2-h iv infusion), plasma, LC-MS/MS, non-compartmental): 3.35 ± 1.06 mg/L | K10, elimination rate constant ([3]; two-compartmental analysis): 0.165 ± 0.065 h⁻¹ | K12, rate constant central to peripheral compartment ([3]; two-compartmental analysis): 0.702 ± 0.395 h⁻¹ | K21, rate constant peripheral to central compartment ([3]; two-compartmental analysis): 0.214 ± 0.137 h⁻¹ | V1, central volume of distribution ([3]; two-compartmental analysis): 0.163 ± 0.036 L/kg | V2, peripheral volume of distribution ([3]; two-compartmental analysis): 0.565 ± 0.243 L/kg
